Read-outs that look alike come from different tables or passages of the source. Bounds are passed on as bounds.

The term EC30 denotes the concentration needed for an effect of 30%.

The target of the test is T1, F508del (Homo sapiens, UniProt P13569, DEL508-508).
T1 construct: expressed in transfected cells
As to the kind of experiment: Protocol 2: FRET membrane potential optical assay (VIPR), identification of correction compounds. The class given is cell-based. The procedure, abridged:
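Mouse NIH3T3 cells, stable F508del; cpd 16 hrs, 37° C., serum-free; pos ctrl 27° C. 16 hrs. Rinse in Krebs Ringers, dye load, then add 10 μM forskolin + 20 μM genistein with Cl^−-free (gluconate) medium; depolarization by FRET voltage dyes.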

Where [1] appears, read: F508del CFTR modulator activity, compounds of Table 1, read-out: EC30.
[2] abbreviates: Table 3, compounds of Table 1 as modulators of CFTR activity, protocol not stated.

T1 sequence (P13569 with tags, fused parts or gaps DEL508-508): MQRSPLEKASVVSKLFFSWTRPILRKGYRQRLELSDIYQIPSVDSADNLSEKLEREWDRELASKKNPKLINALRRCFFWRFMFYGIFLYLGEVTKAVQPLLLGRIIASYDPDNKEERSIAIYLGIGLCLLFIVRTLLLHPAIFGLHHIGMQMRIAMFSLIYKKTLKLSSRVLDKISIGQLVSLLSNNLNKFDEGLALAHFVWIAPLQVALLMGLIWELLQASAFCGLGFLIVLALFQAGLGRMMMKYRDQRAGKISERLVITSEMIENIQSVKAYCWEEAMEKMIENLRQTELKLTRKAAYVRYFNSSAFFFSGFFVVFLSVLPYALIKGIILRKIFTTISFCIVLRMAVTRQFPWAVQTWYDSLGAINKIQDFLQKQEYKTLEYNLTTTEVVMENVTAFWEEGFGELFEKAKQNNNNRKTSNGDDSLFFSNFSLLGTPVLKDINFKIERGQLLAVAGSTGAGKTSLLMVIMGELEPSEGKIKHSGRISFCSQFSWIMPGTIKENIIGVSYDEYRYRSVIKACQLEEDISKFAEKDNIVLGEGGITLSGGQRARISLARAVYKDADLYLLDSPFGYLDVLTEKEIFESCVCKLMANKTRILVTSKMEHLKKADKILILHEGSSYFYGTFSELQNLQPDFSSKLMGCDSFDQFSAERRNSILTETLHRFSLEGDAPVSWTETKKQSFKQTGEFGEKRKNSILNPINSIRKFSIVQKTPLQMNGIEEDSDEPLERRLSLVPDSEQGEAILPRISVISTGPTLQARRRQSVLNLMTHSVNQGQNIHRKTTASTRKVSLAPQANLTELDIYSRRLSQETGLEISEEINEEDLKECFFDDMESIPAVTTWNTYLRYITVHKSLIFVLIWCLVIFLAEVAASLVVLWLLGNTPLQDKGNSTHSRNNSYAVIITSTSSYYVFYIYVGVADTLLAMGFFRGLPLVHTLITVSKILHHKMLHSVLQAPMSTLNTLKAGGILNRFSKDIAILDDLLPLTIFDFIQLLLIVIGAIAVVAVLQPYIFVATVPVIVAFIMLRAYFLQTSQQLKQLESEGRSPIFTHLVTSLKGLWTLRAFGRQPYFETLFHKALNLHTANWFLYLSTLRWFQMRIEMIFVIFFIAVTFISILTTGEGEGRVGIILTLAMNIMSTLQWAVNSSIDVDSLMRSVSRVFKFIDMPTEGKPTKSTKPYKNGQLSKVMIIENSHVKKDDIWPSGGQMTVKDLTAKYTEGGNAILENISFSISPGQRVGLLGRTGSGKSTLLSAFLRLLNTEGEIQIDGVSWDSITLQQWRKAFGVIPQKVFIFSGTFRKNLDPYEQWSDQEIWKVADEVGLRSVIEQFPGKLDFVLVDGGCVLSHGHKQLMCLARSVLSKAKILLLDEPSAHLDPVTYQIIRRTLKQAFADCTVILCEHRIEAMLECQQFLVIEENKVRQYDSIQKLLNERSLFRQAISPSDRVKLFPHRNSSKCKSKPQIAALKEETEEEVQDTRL

In the case of `CC1CN(c2ncc(-c3ccccc3C#N)cc2C(=O)NS(=O)(=O)c2cccc(N)n2)C(C)(C)C1` (stereo not drawn) [Compound 2584, N-[(6-amino-2-pyridyl)sulfonyl]-5-(2-cyanophenyl)-2-(2,2,4-trimethylpyrrolidin-1-yl)pyridine-3-carboxamide], under setting [1], the EC30 lay within 3 to 10 µM. Still for that read-out and setting: then `CC1CN(c2ncccc2C(=O)NS(=O)(=O)c2cccc(N3CCCc4ccccc43)n2)C(C)(C)C1` (stereo not drawn) [Compound 2382, N—[[6-(3,4-dihydro-2H-quinolin-1-yl)-2-pyridyl]sulfonyl]-2-(2,2,4-trimethylpyrrolidin-1-yl)pyridine-3-carboxamide], with under 3 µM.

As for `Cc1cccc(C)c1Cn1nc(C(C)(C)C)cc1C(=O)NS(=O)(=O)c1c(F)cccc1F` [Compound 170, 5-tert-butyl-N-(2,6-difluorophenyl)sulfonyl-2-[(2,6-dimethylphenyl)methyl]pyrazole-3-carboxamide], under setting [2], the EC30 result is recorded as “+++ (“+++” means <3 uM)”.

Take `Cc1ccc(-c2ccc(C(=O)NS(=O)(=O)c3cc[nH]n3)c(Oc3ccc(C)cc3C)n2)cc1` [Compound 610, 2-(2,4-dimethylphenoxy)-6-(p-tolyl)-N-(1H-pyrazol-3-ylsulfonyl)pyridine-3-carboxamide]: the EC30 entry under setting [2] was “+++ (“+++” means <3 uM)”. In the case of `CC1CN(c2ncccc2C(=O)NS(=O)(=O)c2cccc(N3CCCC(Cc4ccccc4)C3)n2)C(C)(C)C1` (stereo not drawn) [Compound 2297, N—[[6-(3-benzyl-1-piperidyl)-2-pyridyl]sulfonyl]-2-(2,2,4-trimethylpyrrolidin-1-yl)pyridine-3-carboxamide], the EC30 under setting [1] was under 3 µM. For `CC(C)COc1cc(F)cc(-c2ccc(C(=O)NS(=O)(=O)c3cccc(N)n3)c(N3CCCC3C3CC3)n2)c1` (stereo not drawn) [Compound 593, N-[(6-amino-2-pyridyl)sulfonyl]-2-(2-cyclopropylpyrrolidin-1-yl)-6-(3-fluoro-5-isobutoxy-phenyl)pyridine-3-carboxamide], the EC30 result under setting [2] is recorded as “+++ (“+++” means <3 uM)”. Still for that read-out and setting: then `CCOc1ccccc1-c1ccc(C(=O)NS(=O)(=O)c2cccc(N)n2)c(Oc2c(C)cc(C)cc2C)n1` [Compound 250, N-[(6-amino-2-pyridyl)sulfonyl]-6-(2-ethoxyphenyl)-2-(2,4,6-trimethylphenoxy)pyridine-3-carboxamide], with “+++ (“+++” means <3 uM)”; and `Cc1cccc(C)c1Cn1nc(-c2cccc(Cl)c2)cc1C(=O)NS(=O)(=O)c1ccccc1` [Compound 83, N-(benzenesulfonyl)-5-(3-chlorophenyl)-2-[(2,6-dimethylphenyl)methyl]pyrazole-3-carboxamide], with “+++ (“+++” means <3 uM)”; and `CC1CN(c2nc(-c3ccc(C(C)C)cc3)ccc2C(=O)NS(=O)(=O)c2cccc(N)n2)C(C)(C)C1` (stereo not drawn) [Compound 693, N-[(6-amino-2-pyridyl)sulfonyl]-6-(4-isopropylphenyl)-2-(2,2,4-trimethylpyrrolidin-1-yl)pyridine-3-carboxamide], with “+++ (“+++” means <3 uM)”. The same measure, in the same setting: under `Cc1cc(C)c(Cn2c(C(=O)NS(=O)(=O)c3cccc(N)c3)cc3cccc(C)c32)c(C)c1` [Compound 194, N-(3-aminophenyl)sulfonyl-7-methyl-1-[(2,4,6-trimethylphenyl)methyl]indole-2-carboxamide] stands “+++ (“+++” means <3 uM)”. On to `CC(C)c1ccccc1-c1ccc(C(=O)NS(=O)(=O)c2ccc[nH]c2=O)c(N2C[C@@H](C)CC2(C)C)n1` [Compound 2635, 6-(2-isopropylphenyl)-N-[(2-oxo-1H-pyridin-3-yl)sulfonyl]-2-[(4S)-2,2,4-trimethylpyrrolidin-1-yl]pyridine-3-carboxamide], for which the EC30 under setting [1] is under 3 µM. Take `CC(C)COc1cc(F)cc(-c2ccc(C(=O)NS(=O)(=O)c3cccc(N)n3)c(N3CC4CC4C3C(F)(F)F)n2)c1` (stereo not drawn) [Compound 490, N-[(6-amino-2-pyridyl)sulfonyl]-6-(3-fluoro-5-isobutoxy-phenyl)-2-[4-(trifluoromethyl)-3-azabicyclo[3.1.0]hexan-3-yl]pyridine-3-carboxamide]: the EC30 entry under setting [2] is listed as “+++ (“+++” means <3 uM)”. `CCOc1ccccc1-c1ccc(C(=O)NS(=O)(=O)N2CC[C@H](N)C2)c(N2C[C@@H](C)CC2(C)C)n1` [Compound 2050, N-[(3S)-3-aminopyrrolidin-1-yl]sulfonyl-6-(2-ethoxyphenyl)-2-[(4S)-2,2,4-trimethylpyrrolidin-1-yl]pyridine-3-carboxamide]: the EC30 under setting [1] was under 3 µM. With `C[C@@H]1CC[C@H](C)N1c1nc(-c2cncc(OC3CCCC3)c2)ccc1C(=O)NS(=O)(=O)c1cccc(N)n1` [Compound 495, N-[(6-amino-2-pyridyl)sulfonyl]-6-[5-(cyclopentoxy)-3-pyridyl]-2-[(2S,5R)-2,5-dimethylpyrrolidin-1-yl]pyridine-3-carboxamide], the EC30 entry under setting [2] is “++ (“++” means between 3 uM and 10 uM)”.

For the compound `CNc1cccc(S(=O)(=O)NC(=O)c2ccc(C(C)(C)C)nc2Oc2c(C)cc(C)cc2C)c1` [Compound 289, 6-tert-butyl-N-[3-(methylamino)phenyl]sulfonyl-2-(2,4,6-trimethylphenoxy)pyridine-3-carboxamide], the EC30 entry under setting [2] was “+++ (“+++” means <3 uM)”. Same read-out and setting: under `Cc1cc(C)c(Cn2c(C(=O)NS(=O)(=O)c3ccccc3)c(C)c3ccccc32)c(C)c1` [Compound 232, N-(benzenesulfonyl)-3-methyl-1-[(2,4,6-trimethylphenyl)methyl]indole-2-carboxamide] stands “+++ (“+++” means <3 uM)”; under `Cc1ccc(-c2nc3c(cc2C(=O)NS(=O)(=O)c2ccc(N)nc2)CCCC3(C)C)cc1` [Compound 635, N-[(6-amino-3-pyridyl)sulfonyl]-8,8-dimethyl-2-(p-tolyl)-6,7-dihydro-5H-quinoline-3-carboxamide], “+ (“+” means greater than 10 uM)”. On to `CCOc1cc(F)cc(-c2ccc(C(=O)NS(=O)(=O)c3ccn[nH]3)c(N3[C@H](C)CC[C@@H]3C)n2)c1` [Compound 382, 2-[(2R,5S)-2,5-dimethylpyrrolidin-1-yl]-6-(3-ethoxy-5-fluoro-phenyl)-N-(1H-pyrazol-5-ylsulfonyl)pyridine-3-carboxamide], for which, under setting [2], the EC30 result is “+++ (“+++” means <3 uM)”. With `CC1CN(c2ncccc2C(=O)NS(=O)(=O)c2cccc(N3CCN(c4ncccn4)CC3)n2)C(C)(C)C1` (stereo not drawn) [Compound 2621, N—[[6-(4-pyrimidin-2-ylpiperazin-1-yl)-2-pyridyl]sulfonyl]-2-(2,2,4-trimethylpyrrolidin-1-yl)pyridine-3-carboxamide], the 30% effect concentration (EC30) under setting [1] lay within 3 to 10 µM. As for `COc1ncc(-c2ccc(C(=O)NS(=O)(=O)c3cccc(N)n3)c(Oc3ccc(C)cc3C)n2)cc1C` [Compound 533, N-[(6-amino-2-pyridyl)sulfonyl]-2-(2,4-dimethylphenoxy)-6-(6-methoxy-5-methyl-3-pyridyl)pyridine-3-carboxamide], under setting [2], the EC30 entry is recorded as “+++ (“+++” means <3 uM)”. Same read-out and setting: then `CC(C)Oc1ccc(-c2ccc(C(=O)NS(=O)(=O)c3cccc(N)n3)c(N3CCC4(CC3)CC4)n2)cn1` [Compound 578, N-[(6-amino-2-pyridyl)sulfonyl]-2-(6-azaspiro[2.5]octan-6-yl)-6-(6-isopropoxy-3-pyridyl)pyridine-3-carboxamide], with “+++ (“+++” means <3 uM)”; and `COc1ccc(-c2cc(C(=O)NS(=O)(=O)c3ccccc3)n(Cc3c(C)cccc3C)n2)cc1F` [Compound 43, N-(benzenesulfonyl)-2-[(2,6-dimethylphenyl)methyl]-5-(3-fluoro-4-methoxy-phenyl)pyrazole-3-carboxamide], with “+++ (“+++” means <3 uM)”.

In the case of `CC1CN(c2ncccc2C(=O)NS(=O)(=O)c2cccc(NCCOc3ccccc3)n2)C(C)(C)C1` (stereo not drawn) [Compound 2206, N—[[6-(2-phenoxyethylamino)-2-pyridyl]sulfonyl]-2-(2,2,4-trimethylpyrrolidin-1-yl)pyridine-3-carboxamide], the EC30 under setting [1] was under 3 µM. Still for that read-out and setting: then `CCOc1ccc(CCNc2cccc(S(=O)(=O)NC(=O)c3cccnc3N3CC(C)CC3(C)C)n2)cc1` (stereo not drawn) [Compound 2642, N—[[6-[2-(4-ethoxyphenyl)ethylamino]-2-pyridyl]sulfonyl]-2-(2,2,4-trimethylpyrrolidin-1-yl)pyridine-3-carboxamide], with under 3 µM. As to `Cc1cc(C)c(Cc2nn(C(C)(C)C)cc2C(=O)NS(=O)(=O)c2ccccc2)c(C)c1` [Compound 63, N-(benzenesulfonyl)-1-tert-butyl-3-[(2,4,6-trimethylphenyl)methyl]pyrazole-4-carboxamide], under setting [2], the EC30 entry is recorded as “+++ (“+++” means <3 uM)”.

Turning to `CC(C)Oc1ccc(-c2ccc(C(=O)NS(=O)(=O)c3cccc(N)n3)c(N3CC4CCC3C4)n2)cn1` (stereo not drawn) [Compound 521, N-[(6-amino-2-pyridyl)sulfonyl]-2-(3-azabicyclo[2.2.1]heptan-3-yl)-6-(6-isopropoxy-3-pyridyl)pyridine-3-carboxamide], the EC30 result under setting [2] is “++ (“++” means between 3 uM and 10 uM)”. Still for that read-out and setting: then `Cc1ccc(Oc2nc(-c3cc(F)cc(OCC(C)C)c3)ccc2C(=O)NS(=O)(=O)c2ccn[nH]2)cc1` [Compound 758, 6-(3-fluoro-5-isobutoxy-phenyl)-2-(4-methylphenoxy)-N-(1H-pyrazol-5-ylsulfonyl)pyridine-3-carboxamide], with “++ (“++” means between 3 uM and 10 uM)”; and `CCOc1ccc(-c2ccc(C(=O)NS(=O)(=O)c3ccn[nH]3)c(N3CCC(C)CC3)n2)cc1` [Compound 445, 6-(4-ethoxyphenyl)-2-(4-methyl-1-piperidyl)-N-(1H-pyrazol-5-ylsulfonyl)pyridine-3-carboxamide], with “+ (“+” means greater than 10 uM)”; and `Cc1cc(C)c(Cn2nc(-c3ccccc3)cc2C(=O)NS(=O)(=O)c2cccc(N)c2)c(C)c1` [Compound 366], with “+++ (“+++” means <3 uM)”.

As for `COc1ncccc1S(=O)(=O)NC(=O)c1ccc(-c2ccc(C)cc2)nc1-c1ccc(C)cc1` [Compound 524, N-[(2-methoxy-3-pyridyl)sulfonyl]-2,6-bis(p-tolyl)pyridine-3-carboxamide], the EC30 entry under setting [2] is “++ (“++” means between 3 uM and 10 uM)”.

The values above are taken from patent US10758534B2 (Vertex Pharmaceuticals Incorporated, priority 2014, dated 2020).
